Legend:
[1] = test system: autonomic nerve; settings: intravenous administration; cited from earlier work
[2] = test system: sympathetic nerve controlling the adrenal gland; assay: Action potential of the sympathetic nerve controlling the adrenal gland (ASNA) after oral administration; format: in vivo, rat; settings: rats, 0.012 mg/kg weight, 5 to 60 minutes after administration, ANOVA
Experimental: […] […] Values for 5 to 60 minutes after the administration were treated as a group, and a significance test with respect to the water-administered control group was conducted by the analysis of variance (ANOVA).
(§1) Male Wister rats (approximately […]) (n=3) with a body weight of approximately 300 g were used, and they took food and water ad lib. To examine the activity of the autonomic nerve, after a 3-hour fast, a polyethylene tube for oral administration was inserted into the oral cavity of each rat under urethane anesthesia in the middle of a light period. Thereafter, a sympathetic nerve controlling the adrenal gland, a parasympathetic (vagus) nerve controlling the stomach, or sympathetic nerve in a cutaneous artery of the tail was hooked to a silver electrode, and the electrical activity of the nerve was determined. From the start of the operation to the completion of the determination, the tube was kept inserted in the trachea to secure the airway, and the body temperature (rectal temperature of the rat) was kept at 35.0±0.5° C. by using an incubator. In a period where the activities of these nerves were stabilized, 1 ml of each sample was orally administered through a polyethylene tube, and the changes in activities of these nerves were measured. […]

[3] = test system: time of stay on the open arms; assay: Elevated plus-maze test (anti-anxiety effect); format: in vivo; settings: ddY mice, oral 0.1 mg/kg weight to 100 mg/kg weight, test 30 minutes after administration
Experimental: Water, 0.1 mg/kg weight to 100 mg/kg weight of Tyr-Pro, or 10 mg/kg to 1000 mg/kg weight of a casein hydrolysate was administered to mice (n=12), and the time for which the mice stayed on open arms was measured (Example 4). […] The data were expressed in the form of mean±standard error. A significance test with respect to the water-administered control group was conducted by an unpaired Student's t test, and *, **, and *** indicate that P<0.05, P<0.01, and P<0.001, respectively.
Male ddY mice (approximately 6-week old) (n=12) were used. After preliminary feeding, Tyr-Pro (0.1 mg/kg weight, 1.0 mg/kg weight, 10 mg/kg weight, 30 mg/kg weight, or 100 mg/kg weight) or a casein hydrolysate (10 mg/kg weight, 100 mg/kg weight, or 1000 mg/kg weight) was administered once orally. The anti-anxiety effect was examined by an elevated plus-maze test 30 minutes after the administration. The casein hydrolysate was the same as that in Example 1. […] The behaviors thereof were observed, and the accumulative time of stay on the open arms was measured. From the measured value, the percentage of the accumulative time of stay on the open arms in a 5-minute test was found, and used as an index of the anti-anxiety effect. […] The measured values were expressed in the form of mean±standard error for each group and a comparison with the control group was conducted by using an unpaired Student's t test.

[4] = test system: pain; settings: rat, intraperitoneal; cited from earlier work
[5] = test system: scopolamine-induced amnesia; assay: Scopolamine-induced amnesia, Y-shaped maze test (spontaneous alternation behavior); format: in vivo; settings: ddY mice, oral 1.5 mg/kg weight to 15 mg/kg weight, 60 minutes before Y-shaped maze; scopolamine 1 mg/kg s.c.
Experimental: A significance test on the groups was conducted by a Dunnett's multiple comparison test.
Male ddY mice (approximately 7-week old) (n=15) were used, and they took food and water ad lib.
The test substances were administered to the mice once orally 60 minutes before the execution of a Y-shaped maze test for evaluation of spontaneous alternation behavior. Further, 30 minutes before the execution of the Y-shaped maze test, 1 mg/kg weight of scopolamine was subcutaneously administered on the backs, of the mice in order to induce dysmnesia and/or cognitive impairment in the mice. […] The sequence of the arms into which each of the mice entered was recorded. The number of entries into the arms of each mouse during the measurement time was counted to be the total number of entries. […] The percentage of change in spontaneous alternation behavior was calculated by dividing the number of spontaneous alternation behavior by a number obtained by subtracting 2 from the total number of entries and multiplying a resultant number by 100. […] The measured values were expressed in the form of mean±standard error for each group. […]

[6] = test system: gastric emptying function; assay: Gastric emptying function test (phenol red dye discharge); format: in vivo, rat; settings: SD rats, oral 0.1 mg/kg weight, dye 30 minutes later, stomach extirpated 20 minutes after dye; mean±standard error; control 78.8±2.41%
Experimental: Water or 0.1 mg/kg weight of Tyr-Pro was administered to rats (n=10), and 30 minutes later a dye (phenol red) was administered. After additional 20 minutes, each stomach was extirpated, and the dye remaining in the stomach was determined. A significance test with respect to the water-administered control group was conducted by an unpaired Student's t test.
Male Sprague-Dawley (SD) rats (6-week old) (n=10) were used, and they took food and water ad lib. After preliminary feeding for one week or longer, the rats were subjected to the experiment. Prior to the test, all the rats were fasted in a fasting cage for 24 hours. During the period, the rats took water ad lib. In the test, a solvent (distilled water for injection) and 0.1 mg/kg weight of Tyr-Pro were orally administered to the rats, and, 30 minutes later, a 0.05% dye (phenol red) solution (containing 1.5% of carboxylmethyl cellulose) was orally administered at a volume of 1.5 ml/rat. Each stomach was extirpated under ether anesthesia 20 minutes after the administration of the dye without delay. […] The supernatant was centrifuged, and then measured for absorbance at 560 nm. The gastric emptying function (GE: gastric emptying) was calculated in accordance with the following formula.
GE(%)=(1−absorbance of solution recovered from stomachs of test-substance-administered group/absorbance at gastric emptying of 0%)×100 […]

[7] = test system: sympathetic nerve in a cutaneous artery of the tail; assay: Action potential of the sympathetic nerve in the cutaneous artery of the tail (CASNA) after oral administration; format: in vivo, rat; settings: rats, 0.12 mg/kg weight, 5 to 60 minutes after administration
Experimental: Water, 0.12 mg/kg weight of Tyr-Pro, or 4.2 mg/kg weight of a casein hydrolysate was administered to rats (n=3), and the action potential of the sympathetic nerve in the cutaneous artery of the tail was measured over time. […] Values for 5 to 60 minutes after the administration were treated as a group, and a significance test with respect to the water-administered control group was conducted by the analysis of variance (ANOVA).
Male Wister rats (approximately 0-week old) (n=3) with a body weight of approximately 300 g were used, and they took food and water ad lib. To examine the activity of the autonomic nerve, after a 3-hour fast, a polyethylene tube for oral administration was inserted into the oral cavity of each rat under urethane anesthesia in the middle of a light period. Thereafter, a sympathetic nerve controlling the adrenal gland, a parasympathetic (vagus) nerve controlling the stomach, or sympathetic nerve in a cutaneous artery of the tail was hooked to a silver electrode, and the electrical activity of the nerve was determined. […] In a period where the activities of these nerves were stabilized, 1 ml of each sample was orally administered through a polyethylene tube, and the changes in activities of these nerves were measured. […]

[8] = test system: parasympathetic (vagus) nerve controlling the stomach; assay: Action potential of the parasympathetic (vagus) nerve controlling the stomach (GVNA) after oral administration; format: in vivo, rat; settings: rats, 5 to 60 minutes after administration, ANOVA
Experimental: Water or 0.045 mg/kg weight or 0.12 mg/kg weight of Tyr-Pro was administered to rats (n=3), and the action potential of the parasympathetic (vagus) nerve controlling the stomach was measured over time. […] Values for 5 to 60 minutes after the administration were treated as a group, and a significance test with respect to the water-administered control group was conducted by the analysis of variance (ANOVA).
as §1, with “From the start of the operation to the completion of the determination, the tube was kept inserted in the trachea to secure the airway, and the body temperature (rectal temperature of the rat) was kept at 35.0±0.5° C. by using an incubator.” left out

[9] = test system: blood pressure; settings: orally administered; cited from earlier work
[10] = test system: opioid receptors; settings: cited from earlier work

In the case of NCCC(=O)N[C@@H](Cc1cnc[nH]1)C(=O)O [carnosine], the “effect of controlling the autonomic nerve” value [1] is given as “an effect of controlling the autonomic nerve”.
In the case of Tyr-Pro, the “sympathetic nervous activity in the adrenal gland in comparison with the water-administered group” value [2] is given as “significantly decreased”, the anti-anxiety effect [3] is given as “exhibited an anti-anxiety effect” and the analgesic effect [4] is given as “exhibit an analgesic effect”. For the same compound, the “effect of preventing amnesia” value [5] was “an effect of preventing amnesia”, the “dye discharge percentage (gastric emptying, GE)” value [6] was 85.4±2.01% and the “sympathetic nervous activity in the cutaneous artery in comparison with the water-administered group” value [7] was “a tendency was observed that the sympathetic nervous activity in the cutaneous artery was lowered”. For the same compound, the “parasympathetic nervous activity in the stomach in comparison with the water-administered group” value ([8]; 0.045 mg/kg weight) was “significantly increased”, the “parasympathetic nervous activity in the stomach in comparison with the water-administered group” value ([8]; 0.12 mg/kg weight) was “significantly increased” and the “effect of lowering the blood pressure” value [9] was “effect of lowering the blood pressure”. The “binding capability to opioid receptors” value [10] was “lacks binding capability to opioid receptors”.
